Results reported in ChEMBL document CHEMBL3507680, “University of Dundee, Gates Library screen for HepG2 cell viability”.

test: Human HepG2 cell viability assay in 384 well format; format: toxicity, cell-based; design: dose 125 nL, time 70.5 hour; concentration not given beside the values; settings: HepG2 cells, read-out: Inhibition

| Compound | cytotoxicity at 70.5 h [%] |
| --- | --- |
| c1cc(CN2CCCC(c3nnc(-c4cnccn4)o3)C2)ccn1 (centres undefined) | -8.48 |
| N#Cc1ccsc1NC(=O)CN1CCOC(Cn2cccn2)C1 (centres undefined) | 11 |
| CO[C@H]1CN(c2ccccc2)S(=O)(=O)[C@@]12CCN(Cc1ccccc1)C2 | 19.1 |
| COCC(NC(=O)c1cccnc1)c1cccc(C(F)(F)F)c1 (centres undefined) | -5.85 |
| Nc1nccnc1C1CN(C(=O)COc2cccnc2)CCO1 (centres undefined) | 6.29 |
| Cc1ccc(CN2CCCC3(CCN(Cc4ccoc4)CC3)C2)cc1 | 15.4 |
| O=C(c1cscn1)N1CCC[C@]2(C[C@@H](OCC3CC3)CO2)C1 | -11 |
| c1cncc(N2CCCC3(CCN(CCN4CCCC4)CC3)C2)c1 | -1.3 |
| Cc1cnc(Cn2cc(-c3cccc(C(C)N(C)C)c3)nn2)cn1 (centres undefined) | -4.71 |
| NC(=O)C1CCCN1C1CCN(C(=O)c2cccc3c2OCO3)CC1 (centres undefined) | -0.518 |
| O=C(COC1CCCC1)N1CCCN(c2ncccn2)CC1 | -2.52 |
| CN(Cc1cc(-c2ccncc2)no1)Cc1nccn1C | 10.3 |
| Cc1c(NC(=O)c2noc3c2CCCC3)cnn1C | 16.1 |
| CN(C)C(=O)c1ccc2c(c1)N(C)C(CC(=O)NCCOCCO)CO2 (centres undefined) | 12.2 |
| O=C(Nc1cc(C(F)(F)F)c[nH]c1=O)C1CCCN1 (centres undefined) | -10.7 |
| CCc1nc(C2CCCN2C(=O)c2cc(C3CC3)[nH]n2)no1 (centres undefined) | -1.42 |
| c1cncc(CN2CCC(c3csc4nccn34)CC2)c1 | -4.71 |
| CC(C)c1ccc(/C=C/CC(=O)NC2CCN(C(N)=O)C2)cc1 (centres undefined) | 9 |
| COc1ccc2c(C)c(C(=O)NC3CCCOC3)oc2c1 (centres undefined) | -4.44 |
| Cc1ccc(CN2CCC3(CCC(=O)N3CC(=O)N(C)C)CC2)s1 | -13.1 |
| CO[C@@H]1CCN(Cc2ccc(C)o2)[C@H]1Cc1ccccc1 | -1.2 |
| Cc1cccc(OCCCNC(=O)Cn2ccc(C)cc2=O)c1 | -6.82 |
| CN(C)C[C@H]1C[C@@H](CO)CN(C(=O)c2cc(=O)[nH]c3cc(F)ccc23)C1 | -2.71 |

| Compound | cytotoxicity at 70.5 h [%] |
| --- | --- |
| Cc1cnn(C2CCCN(C(=O)CCc3ccncc3)C2)c1 (centres undefined) | -0.811 |
| Cc1nc(NS(=O)(=O)c2cccc(F)c2C)no1 | 6.79 |
| Cn1ncc(Cl)c1C(=O)NCCN1CCC(O)(c2ccc(F)cc2)CC1 | 5.46 |
| Cc1ccc(C)c(CC(=O)NC2CCS(=O)(=O)CC2)c1 | -10.2 |
| CCc1ccc(CN2CCc3c(nnn3C)C2COC)cc1 (centres undefined) | -5.54 |
| O=C(COCc1ccccc1Cl)N1CCCC(n2cccn2)C1 (centres undefined) | 3.17 |
| CCN(Cc1nc2c(cnn2C)c(=O)[nH]1)c1cccc(Cl)c1 | -15.8 |
| Cc1ccc(CN2CCC(c3nnc(CN4CCCCC4)n3C)CC2)o1 | -5.72 |
| O=C(NCCN1CCCS1(=O)=O)c1scnc1Cl | -24.6 |
| COCc1nc(CN2CCOC(CN(C)c3cccnn3)C2)cs1 (centres undefined) | 2.04 |
| Cc1ccc(C(O)CNC(=O)Nc2cc(C)nn2C)cc1 (centres undefined) | -3.09 |
| O=C(NCc1cnn2ccccc12)NC1CCCC1 | -15.5 |
| COCC(=O)NCc1cc(=O)n2c(n1)CN(Cc1ccoc1)CCC2 | 1.73 |
| O=C(NCCCn1ccnc1)NCC(c1ccco1)N1CCCCC1 (centres undefined) | 4.46 |
| O=C(CC1CN(Cc2ccccc2)CCO1)Nc1ccsc1 (centres undefined) | 8.64 |
| CN1CCCN(C(=O)c2cnc(C(C)(C)C)nc2O)CC1 | 0.369 |
| c1ccc(-c2cc(CN3CCCC(Cn4cncn4)C3)on2)cc1 (centres undefined) | -1.24 |
| O=C(CN1CCCNC1=O)N1CCCC(c2nccs2)C1 (centres undefined) | -8.65 |
| CNC(=O)[C@@H]1C[C@@H](NC(=O)c2ccc(OC)o2)CN1Cc1sccc1C | 1.26 |
| CC(C)(C)C(=O)NCCCC(=O)NC(C)(C)c1ccc2c(c1)OCO2 | 3.16 |
| COC(=O)c1ccoc1CN(C)CC(=O)NC1CC1 | -5.08 |
| CC(C)Oc1ccc(CSc2nnc(CN3CCCC3=O)o2)cc1 | -7.62 |
| CSc1nccn1-c1cccc(C(=O)NCC(F)(F)F)c1 | -0.984 |

| Compound | cytotoxicity at 70.5 h [%] |
| --- | --- |
| COc1cccc(-c2ncc(CN3CCOCC(O)C3)s2)c1 (centres undefined) | -6.59 |
| Cn1cc(CNCCNC(=O)Cc2ccccc2)c(-c2cccnc2)n1 | -5.62 |
| CCOCC1CN(C)Cc2cnn(CC3CCCC3)c21 (centres undefined) | -5.11 |
| Cc1ccc2nc3n(c2c1)[C@@H](CNCc1nccs1)COC3 | -5.06 |
| CCc1nc(CN2CCN(C(C)c3nc(C4CC4)no3)CC2)no1 (centres undefined) | -10.3 |
| O=C(c1cccc(C2CCNC2)c1)N1CCC(c2ncc[nH]2)CC1 (centres undefined) | -17 |
| COc1ccccc1C(=O)N1CCN(C(=O)CCn2ccnc2)CC1 | -5.01 |
| COC(=O)NCC(=O)N1CCCC1c1nc(-c2ccccc2F)c[nH]1 (centres undefined) | -3.18 |
| Cc1cccc(CN2C(=O)CC[C@@H]3[C@H]2CCN3Cc2nccn2C)n1 | -9.05 |
| O=C(CCCc1ccc(F)cc1)N1C[C@@H](CN2CCOCC2)[C@@H](CO)C1 | -2.56 |
| COCCc1noc(CN(C)c2cc(C)ncn2)n1 | 17.1 |
| Cc1ncn(CCNC(=O)Nc2ccc(F)c(Cl)c2)c(=O)c1C | -3.86 |
| COc1ccc(C2=Nn3c(CCN)nnc3-c3ccccc3C2)cc1 | 8.3 |
| O=C(CCC1CC1)N1C[C@@H](CN2CCCC2)[C@@H](CO)C1 | -13.2 |
| c1cc(CN2CCCCC2c2ccc(Nc3cnccn3)nc2)ccn1 (centres undefined) | -4.05 |
| NC(=O)N1CC(OCc2cccc3ccccc23)C1 | 2.87 |
| Cc1nccn1-c1ccc(CNS(=O)(=O)N2CCCCC2C)cn1 (centres undefined) | -3.35 |
| Cc1nc(CCN)cc(N2CCC(O)(c3ccccc3)C2)n1 (centres undefined) | -4.16 |
| CCO[C@H]1CN(C(=O)c2ccnnc2)[C@@H]2COC[C@H]12 | -10.7 |
| O=C(NC1CC1)N1CCOCC2(C1)CN(c1ccccc1)C(=O)CO2 (centres undefined) | -9.6 |
| CS(=O)(=O)NCC1CCCN(Cc2ccc(F)c3cccnc23)C1 (centres undefined) | -12.2 |
| Cc1nonc1CN(C)CC1(O)CCCN(CCC2CCCCC2)C1=O (centres undefined) | 2.77 |
| N#Cc1ncn(CCS(=O)(=O)c2ccc(Br)cc2)n1 | 4.43 |

| Compound | cytotoxicity at 70.5 h [%] |
| --- | --- |
| FC(F)(F)c1cccc(-c2c[nH]c(C3CCCN3)n2)c1 (centres undefined) | 1.03 |
| Cc1nc(CC(=O)N2CCCC(N(C)Cc3ccccc3)C2)cs1 (centres undefined) | 1.48 |
| CS(=O)(=O)c1ccc(-c2cnc(C3CCCN3)cn2)cc1 (centres undefined) | -11.3 |
| Cc1cc(C)nc(N2CCOC(C)(C(=O)N(C)C)C2)n1 (centres undefined) | -4.59 |
| CNC(=O)Cn1nnc(-c2cc3ccccc3o2)n1 | -5.34 |
| Cc1nc2ccc(C(=O)N3C[C@@H](O)[C@H](N4CCOCC4)C3)cc2[nH]1 | 12 |
| O=C(CC1CC2(CCN(CC3CC3)CC2)c2ccccc21)NC1CCC1 (centres undefined) | -2.68 |
| Cc1nnc(NC(=O)C(C)n2ncc(Br)c2C)s1 (centres undefined) | 24.3 |
| O=C(Nc1ccc(F)cc1)C1CSCN1 (centres undefined) | -10.2 |
| CC(C)C(C)NC(=O)CNc1cc2c(cc1Cl)NC(=O)CO2 (centres undefined) | 6.71 |
| Cc1ccc(NC(=O)[C@H]2C[C@H](C(=O)O)CN(CC3CC3)C2)cn1 | -21.8 |
| O=C(O)C[C@@H]1CCN(C(=O)c2cccs2)C[C@@H]1CCN1CCCCC1 | -3.9 |
| O=C(C1COCCO1)N1CCN(CC(F)(F)F)c2ccccc21 (centres undefined) | -1.12 |
| Cc1ccc(-c2ccnc(NC(C)c3n[nH]c(C)n3)n2)c(C)n1 (centres undefined) | -9.42 |
| CS(=O)(=O)NC[C@]1(O)CCN(C(=O)Cc2cccs2)C[C@H]1O | 12.2 |
| N#Cc1c(Cl)nsc1NCc1cccnc1OCC(F)(F)F | -105 |
| Cc1cccc(NC(=O)N2CCOCC(CN(C)C)C2)c1C (centres undefined) | -6.8 |
| Cc1noc(C)c1C(C)C(=O)N1CCCN(C)c2ccc(Cl)cc21 (centres undefined) | -6.12 |
| Cn1ccc2cc(C(=O)N3CCOCC3)ccc21 | -9.22 |
| c1cc(-c2nn3c(CN4CCOCC4)nnc3s2)ccn1 | -8.04 |
| Cc1ncsc1C(=O)N(Cc1ccccc1)C1CC1 | -19.8 |
| CC(O)c1cn(C2CCN(C(=O)C3(C)CCCCC3)CC2)nn1 (centres undefined) | 14.9 |
| O=C(NC[C@H]1OC[C@@H](NCc2ccccc2)[C@@H]1O)Nc1ccc(F)cc1 | -4.13 |

| Compound | cytotoxicity at 70.5 h [%] |
| --- | --- |
| COc1ccc(CCC2CCCN(CC(=O)O)C2)cc1 (centres undefined) | -6.84 |
| Cn1cc(Cl)cc1C(=O)N1CCN(Cc2cccs2)CC1 | -12.6 |
| CN(C(=O)c1cccc(OCC(F)F)n1)c1ccc2c(c1)CCO2 | 21.4 |
| CSCCCNC(=O)c1coc(Cn2cnc3ccccc32)n1 | -6.75 |
| CN(C)CCOCc1cncc2c1CCN(C(=O)C1CCOCC1)C2 | -6.54 |
| COc1ccc2c(c1OC)Cc1c-2nc(N)c(C#N)c1C1CCOC1 (centres undefined) | -19.2 |
| NC(=O)c1ccc(CNC(=O)Nc2cn[nH]c2)cc1 | 16 |
| c1cnc(N2CCN(Cn3nccc3-c3cccnc3)CC2)nc1 | 5.37 |
| CC1=N[C@@]2(CC[C@@H]3CN(C(=O)NCC(C)C)C[C@@H]32)C(=O)N1C | -0.53 |
| CN1CC2(CCN(C(=O)Cn3ncc4ccccc4c3=O)CC2)OC1=O | -13.8 |
| COc1ncccc1C(=O)N1CCC(c2nc3c(C)cccc3[nH]2)CC1 | -6.55 |
| Cc1ccc(-c2noc(CN3CCc4nn(C)c(=O)cc4C3)n2)cc1 | -4.24 |
| O=C(CN(CC1CCC1)CC(F)(F)F)N1CCCC1 | -6.18 |
| COc1ccc(N2Cc3nc(N4CCCC4)ncc3C2=O)cc1Cl | 1.18 |
| O=C(NCCc1ccccn1)NC1CCN(c2ccccc2)C1=O (centres undefined) | 1.75 |
| O=C1CC[C@]2(CC[C@@H](NCc3cccnc3)CC2)N1Cc1ccccc1 | -11.6 |
| OCc1cnc(Nc2ccccc2)nc1 | 10.1 |
| Cc1nc(CCN)cc(N(C)Cc2nc3ccc(F)cc3[nH]2)n1 | 0.172 |
| COc1cccc(OCCNC(=O)CN2CCN(C)CC2C)c1 (centres undefined) | -13.4 |
| COc1cccc2c(=O)n(C3CCNCC3)cnc12 | -18.3 |
| OCCOCc1ncn2c1CN(Cc1cccs1)CCC2 | 0.851 |
| COc1nccnc1-c1cccc(-c2ccn(CC3COCCO3)n2)c1 (centres undefined) | -6.47 |
